Where a name gives a salt, the structure may show the parent alone.
System: HMOX1
Test: HMOX1 Protein Assay (immunostaining of HO-1 in NHLF cells, GE InCell 1000)
Format: cell-based
Details: Homo sapiens, fold change above DMSO treated cells, 16 h; for fold induction at 5 µM: 5 μM compound
Procedure, shortened: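 Fold induction of HO-1 over vehicle, normally at 5 μM compound (asterisk marks 3 μM), in 0.8% DMSO medium. Normal human lung fibroblasts were treated 16 h, then paraformaldehyde-fixed, anti-HO-1/Alexa 488 stained with Hoechst, and read by high-content imaging.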

| Structure (SMILES) | fold induction at 5 µM | fold induction at 3 µM (3 μM compound (asterisk)) |
| --- | --- | --- |
| Cn1c(Nc2nc3c(Cl)cccc3s2)nc2cc(C(=O)NCCOCCN)ccc21 [Example 270, 2-(4-Chloro-benzothiazol-2-ylamino)-1-methyl-1H benzoimidazole-5-carboxylic acid [2-(2-amino-ethoxy)-ethyl]-amide] | 14.6 |  |
| CN(CCO)C(=O)CNC(=O)c1ccc2c(c1)nc(Nc1nc3ccc(OC(F)(F)F)cc3s1)n2C [Example 390, 1-Methyl-2-(6-trifluoromethoxy-benzothiazol-2-ylamino)-1H-benzoimidazole-5-carboxylic acid {[(2-hydroxy-ethyl)-methyl-carbamoyl]-methyl}-amide] | 46.4 |  |
| CN(C)CCOCCNC(=O)c1ccc2c(c1)nc(Nc1nc3ccc(OC(F)(F)F)cc3s1)n2C [Example 273, 1-Methyl-2-(6-trifluoromethoxy-benzothiazol-2-ylamino)-1H-benzoimidazole-5-carboxylic acid [2-(2-dimethylamino-ethoxy)-ethyl]-amide] | 25.3 |  |
| Cn1c(Nc2nc3ccc(OC(F)(F)F)cc3s2)nc2cc(C(=O)NCC(=O)N(CCO)CCO)ccc21 [Example 392, 1-Methyl-2-(6-trifluoromethoxy-benzothiazol-2-ylamino)-1H-benzoimidazole-5-carboxylic acid {[bis-(2-hydroxy-ethyl)-carbamoyl]-methyl}-amide] | 24.9 |  |
| Cn1c(Nc2nc3ccc(OC(F)(F)F)cc3s2)nc2cc(C(=O)NCC(=O)N3CCC(CO)CC3)ccc21 [Example 441, 1-Methyl-2-(6-trifluoromethoxy-benzothiazol-2-ylamino)-1H-benzoimidazole-5-carboxylic acid [2-(4-hydroxymethyl-piperidin-1-yl)-2-oxo-ethyl]-amide] | 73.6 |  |
| Cn1c(Nc2nc3ccc(Cl)cc3s2)nc2cc(C(=O)NCC(=O)N3CCCC3)ccc21 [Example 397, 2-(6-Chloro-benzothiazol-2-ylamino)-1-methyl-1H-benzoimidazole-5-carboxylic acid (2-oxo-2-pyrrolidin-1-yl-ethyl)-amide] |  | 25 |
| Cn1c(Nc2nc3ccc(Cl)cc3s2)nc2cc(C(=O)NCCO)ccc21 [Example 30, 2-(6-Chloro-benzothiazol-2-ylamino)-1-methyl-1H-benzoimidazole-5-carboxylic acid (2-hydroxy-ethyl)-amide] | 21.4 |  |
| COCCNC(=O)c1ccc2c(c1)nc(Nc1nc3ccc(OC(F)(F)F)cc3s1)n2CCF [Example 171, 1-(2-Fluoro-ethyl)-2-(6-trifluoromethoxy-benzothiazol-2-ylamino)-1H-benzoimidazole-5-carboxylic acid (2-methoxy-ethyl)-amide] | 22.8 |  |
| Cn1c(Nc2nc3ccc(Cl)cc3s2)nc2cc(C(=O)NCCNCCF)ccc21 [Example 279, 2-(6-Chloro-benzothiazol-2-ylamino)-1-methyl-1H-benzoimidazole-5-carboxylic acid [2-(2-fluoro-ethylamino)-ethyl]-amide hydrochloride] | 89.2 |  |
| Cn1c(Nc2nc3ccc(OC(F)(F)F)cc3s2)nc2cc(C(=O)NCCN3CCCC(O)C3)ccc21 (stereo not drawn) [Example 193, 1-Methyl-2-(6-trifluoromethoxy-benzothiazol-2-ylamino)-1H-benzoimidazole-5-carboxylic acid [2-(3-hydroxy-piperidin-1-yl)ethyl]-amide] | 11.1 |  |
| Cn1c(Nc2nc3ccc(OC(F)(F)F)cc3s2)nc2cc(C(=O)NCCn3ccnc3)ccc21 [Example 327, 1-Methyl-2-(6-trifluoromethoxy-benzothiazol-2-ylamino)-1H-benzoimidazole-5-carboxylic acid (2-imidazol-1-yl-ethyl)-amide] | 31.9 |  |
| Cn1c(Nc2nc3ccc(OC(F)(F)F)cc3s2)nc2cc(C(=O)NCC#N)ccc21 [Example 211, 1-Methyl-2-(6-trifluoromethoxy-benzothiazol-2-ylamino)-1H-benzoimidazole-5-carboxylic acid cyanomethyl-amide] | 46.1 |  |
| Cn1c(Nc2nc3ccc(C(F)(F)F)cc3s2)nc2cc(C(=O)NCCOCCO)ccc21 [Example 236, 1-Methyl-2-(6-trifluoromethyl-benzothiazol-2-ylamino)-1H-benzoimidazole-5-carboxylic acid [2-(2-hydroxy-ethoxy)-ethyl]-amide] | 45.7 |  |
| COc1cc2c(cc1C(=O)NCCN1CCOCC1)nc(Nc1nc3ccc(OC(F)(F)F)cc3s1)n2C [Example 66, 6-Methoxy-1-methyl-2-(6-trifluoromethoxy-benzothiazol-2-ylamino)-1H-benzoimidazole-5-carboxylic acid (2-morpholin-4-yl-ethyl)-amide] | 20.8 |  |
| CCOCCNC(=O)c1ccc2c(c1)nc(Nc1nc3cc(F)c(F)cc3s1)n2C [Example 87, 2-(5,6-Difluoro-benzothiazol-2-ylamino)-1-methyl-1H-benzoimidazole-5-carboxylic acid (2-ethoxy-ethyl)-amide] | 12.1 |  |
| CCn1c(Nc2nc3ccc(Cl)cc3s2)nc2cc(C(=O)NCCOC)ccc21 [Example 177, 2-(6-Chloro-benzothiazol-2-ylamino)-1-ethyl-1H-benzoimidazole-5-carboxylic acid (2-methoxy-ethyl)-amide] | 30.3 |  |
| CN(C)[C@@H]1CCN(C(=O)CNC(=O)c2ccc3c(c2)nc(Nc2nc4ccc(OC(F)(F)F)cc4s2)n3C)C1 [Example 415, 1-Methyl-2-(6-trifluoromethoxy-benzothiazol-2-ylamino)-1H-benzoimidazole-5-carboxylic acid [2-((R)-3-dimethylamino-pyrrolidin-1-yl)-2-oxo-ethyl]-amide] | 74.8 |  |
| CN(C)CC1CCCN(C(=O)CNC(=O)c2ccc3c(c2)nc(Nc2nc4ccc(Cl)cc4s2)n3C)C1 (stereo not drawn) [Example 461, 2-(6-Chloro-benzothiazol-2-ylamino)-1-methyl-1H-benzoimidazole-5-carboxylic acid [2-(3-dimethylaminomethyl-piperidin-1-yl)-2-oxo-ethyl]-amide] | 27.1 |  |
| Cn1c(Nc2nc3ccc(OC(F)(F)F)cc3s2)nc2cc(C(=O)NCC(=O)N3CCNCC3)ccc21 [Example 152, 1-Methyl-2-(6-trifluoromethoxy-benzothiazol-2-ylamino)-1H-benzimidazole-5-carboxylic acid (2-oxo-2-piperazin-1-yl-ethyl)-amide hydrochloride] | 15 |  |
| Cn1c(Nc2nc3ccc(Cl)cc3s2)nc2cc(C(=O)N[C@@H]3CCCNC3)ccc21 [Example 309, 2-(6-Chloro-benzothiazol-2-ylamino)-1-methyl-1H-benzoimidazole-5-carboxylic acid (R)-piperidin-3-ylamide hydrochloride] | 21.5 |  |
| CC(O)CNC(=O)c1cc2nc(Nc3nc4ccc(OC(F)(F)F)cc4s3)n(C)c2cc1F (stereo not drawn) [Example 60, 6-Fluoro-1-methyl-2-(6-trifluoromethoxy-benzothiazol-2-ylamino)-1H-benzoimidazole-5-carboxylic acid (2-hydroxy-propyl)-amide] | 39.8 |  |
| COC(=O)c1cc2nc(Nc3nc4ccc(OC(F)(F)F)cc4s3)n(C)c2cc1F [Example 40, 6-Fluoro-1-methyl-2-(6-trifluoromethoxy-benzothiazol-2-ylamino)-1H-benzoimidazole-5-carboxylic acid methyl ester] | 11.8 |  |
| Cn1c(Nc2nc3ccc(OC(F)(F)F)cc3s2)nc2cc(C(=O)NCC(=O)N3CCOCC3)ccc21 [Example 138, 1-Methyl-2-(6-trifluoromethoxy-benzothiazol-2-ylamino)-1H-benzimidazole-5-carboxylic acid (2-morpholin-4-yl-2-oxo-ethyl)-amide] | 11 |  |
| CCOCCNC(=O)c1ccc2c(c1)nc(Nc1nc3ccc(C(F)(F)F)cc3s1)n2C [Example 85, 1-Methyl-2-(6-trifluoromethyl-benzothiazol-2-ylamino)-1H-benzoimidazole-5-carboxylic acid (2-ethoxy-ethyl)-amide] | 11.6 |  |
| Cn1c(Nc2nc3ccc(OC(F)(F)F)cc3s2)nc2cc(C(=O)NCC(C)(C)O)ccc21 [Example 45, 1-Methyl-2-(6-trifluoromethoxy-benzothiazol-2-ylamino)-1H-benzoimidazole-5-carboxylic acid (2-hydroxy-2-methyl-propyl)-amide] | 12.5 |  |
| CCS(=O)(=O)CCNC(=O)c1ccc2c(c1)nc(Nc1nc3ccc(OC(F)(F)F)cc3s1)n2C [Example 109, 1-Methyl-2-(6-trifluoromethoxy-benzothiazol-2-ylamino)-1H-benzimidazole-5-carboxylic acid (2-ethanesulfonyl-ethyl)-amide] | 20.9 |  |
| Cn1c(Nc2nc3ccc(Cl)cc3s2)nc2cc(C(=O)NCC(=O)N3CCC(O)CC3)ccc21 [Example 436, 2-(6-Chloro-benzothiazol-2-ylamino)-1-methyl-1H-benzoimidazole-5-carboxylic acid [2-(4-hydroxy-piperidin-1-yl)-2-oxo-ethyl]-amide] | 29.3 |  |
| Cn1c(Nc2nc3ccc(OC(F)(F)F)cc3s2)nc2cc(C(=O)NC[C@H]3CC[C@H](CO)CC3)ccc21 [Example 254, 1-Methyl-2-(6-trifluoromethoxy-benzothiazol-2-ylamino)-1H-benzoimidazole-5-carboxylic acid (trans-4-hydroxymethyl-cyclohexylmethyl)-amide] | 47.4 |  |
| CNC(=O)c1ccc2c(c1)nc(Nc1nc3cc(F)ccc3s1)n2C [Example 122, 2-(5-Fluoro-benzothiazol-2-ylamino)-1-methyl-1H-benzimidazole-5-carboxylic acid methylamide] | 26.1 |  |
| Cn1c(Nc2nc3ccc(C(F)(F)F)cc3s2)nc2cc(C(=O)NCCO)ccc21 [Example 27, 1-Methyl-2-(6-trifluoromethyl-benzothiazol-2-ylamino)-1H-benzoimidazole-5-carboxylic acid (2-hydroxy-ethyl)-amide] | 23.2 |  |

Source: US8759535B2, “Substituted fused imidazole derivatives, pharmaceutical compositions, and methods of use thereof” (High Point Pharmaceuticals, LLC, priority 2010, dated 2014)
